Measured values from US20070104785A1, “TABLETS OF LINEZOLID FORM III AND PROCESSES FOR THEIR PREPARATION” (priority 2005, published 2007).

Test: Gelling tendency when the solid dosage form contacts water
Assay type: physicochemical
Details: in words
Description: Linezolid Form I is known from the publication, Brickner S J et al. (J. Med. Chem. 39 (3), 673-679, 1996). U.S. Pat. No. 6,559,305 discloses linezolid Form II. Tablets containing linezolid Form II are known from U.S. Pat. No. 6,514,529. The PCT application WO 05035530 discloses crystalline Form III of linezolid. […]. The gel formation leads to an erratic dissolution of the linezolid from the dosage form. A dosage form should deliver a drug in a reproducible way so that a maximum therapeutic effect can be achieved. An unpredictable release from the dosage form can compromise efficacy. The gelling tendency of linezolid Form III would discourage its formulation into solid dosage forms.
Without wishing to be bound by any theory, the following explanation is given for mechanisms involved with the solid dosage form of the present invention that provide a reproducible dissolution profile. […]. When linezolid Form III crystal comes in contact with water, the surface of the crystal dissolves and the dissolved linezolid Form III instead of spreading in water tends to stick to the crystal surface to form a gel layer around the crystal. The gel formation around the crystal acts as a barrier impeding further contact with water, which in turn retards the solubilization of linezolid Form III. […]

gelling tendency in contact with water: exhibits a gelling tendency
SMILES: CC(=O)NC[C@H]1CN(c2ccc(N3CCOCC3)c(F)c2)C(=O)O1 [Linezolid Form III, (S)—N—[[3-[3-Fluoro-4-(4-morpholinyl)phenyl]-2-oxo-5-oxazolidinyl]methyl]-acetamide]
